Test results as given in patent publication US9096544B2, “Therapeutic compounds” (Wayne State University, priority 2009, dated 2015).

Experiments:
[1] = Test G: effect on body weight of repeated escalating dosing (toxicity, MTD); assay type: in vivo; conditions: IV once a day for 7 days, 20 mg/kg increased by 25% each dose; two female mice per group
Method: Mice were treated with escalating doses of either compound 16 or 3-Cl-AHPC to establish the difference in toxicity (MTD) between these compounds as measured by decreased body weight (FIG. 8). Two groups of mice, each consisting of two female ICR-SCIDS mice, were injected IV with either compound 16 or 3-Cl-AHPC once a day for 7 days. The initial IV injection of 20 mg/kg for each compound was increased by 25% for each ensuing dose. Body weights were measured on each of the seven days with the final body weights determined 48 hours post final dose. […] The final weight for this mouse was recorded 2 hours after death.

[2] = system: poly(ADP-ribose)polymerase (PARP); experiment: Test C: PARP cleavage; assay type: cell-based; conditions: FFMA-AML and TF(v-SRC) cells
Description: FIG. 5 illustrates compound 16-mediated inhibition of XIAP, c-IAP1, and phospho-Bad expression in FFMA-AML and TF(v-SRC) cells accompanied by the induction of PARP cleavage. A) XIAP, c-IAP and phospho-Bad protein expression following exposure to compound 16 assessed by Western blot. B)-D) Protein expression levels quantified using laser densitometry. The expression levels of XIAP, c-IAP1 and phospho-Bad were normalized to the respective α-tubulin level and compared to their relative levels in the controls, which were given an arbitrary value of 1.
The proteins c-IAP1, c-IAP2, and XIAP bind caspases resulting in inhibition of caspase activity (Jin H-S. et al., Cancer Res. 2009; 69:[…]). […] The Bcl-2 family member Bad enhances apoptosis and is inactivated through phosphorylation to phosphorylated Bad (Eisenmann K. M. et al., Cancer Res. 2003; 63:8330-8337). To assess modulation of anti-apoptotic protein expression during the induction of apoptosis in the AML cells by compound 16, the expression of XIAP, c-IAP1 and phospho-Bad as well as cleavage of the DNA-damage repair poly(ADP-ribose)polymerase (PARP) was assessed following exposure of the AML cells to compound 16.

TF(v-SRC) cells = experiment: Test E: inhibition of TF(v-SRC) cell growth in SCID mice (systemic model); assay type: in vivo; conditions: 20 mg/kg intravenously every other day, 15 doses
Method: (§1) FIG. 7 illustrates compound 16 inhibited TF(v-SRC) proliferation and growth in SCID mice. NOD SCID mice were randomized into two groups of eight. Each mouse was injected with 1×10^7TF(v-SRC) cells and 24 h later mice were either treated intravenously with compound 16 (20 mg/kg) or vehicle on a Monday, Wednesday and Friday schedule for five weeks. Mice were monitored for toxicity and survival. A) Survival of TF(vSRC) inoculated mice treated with compound 16, and B) absence of weight loss in compound 16 treated SCID mice. C) compound 16 inhibited palpable TF(v-SRC) growth in SCID mice. TF(v-SRC) cells were grown subcutaneously in a maintenance SCID mouse. The tumor was harvested and approximately 20 mg of tumor was subcutaneously injected utilizing a trochar into each flank of a SCID mouse. The tumors were then allowed to reach a size of 100 mg. The mice were randomized into three groups of 8 mice. Groups were treated either intravenously or subcutaneously at a distant site from the tumor with 20 mg/kg of compound 16 on a Monday, Wednesday and Friday schedule for 12 injections (4 weeks). Control mice were treated intravenously with vehicle.
Non-obese diabetic-severe combined immunodeficiency (NOD-SCID) and ICR-SCID mice were obtained from Jackson Laboratories (Bar Harbor, Me.) and Taconic Farms (Germantown, N.Y.), respectively. A) FFMA-AML and TF(v-SRC) systemic models: NOD-SCID and ICR-SCID mice (4 to 5 weeks old) were injected with either FFMA-AML or TF(v-SRC) cells intravenously. Treatment with either vehicle, 3-Cl-AHPC or compound 16 (the compound of Example 1) was instituted the following day. Once symptoms such as diarrhea, dehydration, weight loss, ascites, paralysis or general weakness became evident, mice were euthanized. B) TF(v-SRC) subcutaneous mouse model. ICR-SCID mice were trocared subcutaneously bilaterally with TF(v-SRC) tumor fragments. Animals with equal tumor weights determined as described previously (Zhang Y. et al., Blood. 2002; 100:2917-2925) were assigned to three experimental arms: 1) control (vehicle treated), 2) subcutaneously treated with compound 16, and 3) intravenously treated with compound 16. The percent increase in the host life-span (% ILS) of the FFMA-AML and TF(v-SRC) bearing mice was calculated by subtracting the […] divided by the median day of death of the AML-bearing vehicle treated mice. In order to determine the efficacy of the 3-Cl-AHPC and compound 16, survival distribution of the 3-Cl-AHPC or compound 16-treated (T) or vehicle (C) groups were compared using the log-rank test. Survival was characterized as the duration of the animal's life span 24 h after the initiation of the xenograft until an observed event (euthanasia or death). A p-value of less than 5% (p<0.05) was considered statistically significant.
The ability of compound 16 to inhibit the growth of TF(v-SRC) cells in SCID mice was determined. SCID mice were injected with 10 million TF(v-SRC) cells. The mice were treated intravenously with compound 16 (20 mg/kg) or vehicle every other day for a total of 15 doses. […] TF(v-SRC) growth in the SCID mice was documented by flow cytometry.

TF(v-SRC) tumors = experiment: Test F: inhibition of growth of palpable TF(v-SRC) tumors; assay type: in vivo, SCID mice; conditions: palpable tumors of 100 mg
Method: as §1, with “Groups were treated either intravenously or subcutaneously at a distant site from the tumor with 20 mg/kg of compound 16 on a Monday, Wednesday and Friday schedule for 12 injections (4 weeks). Control mice were treated intravenously with vehicle.” left out
Non-obese diabetic-severe combined immunodeficiency (NOD-SCID) and ICR-SCID mice were obtained from Jackson Laboratories (Bar Harbor, Me.) and Taconic Farms (Germantown, N.Y.), respectively. […] Animals with equal tumor weights determined as described previously (Zhang Y. et al., Blood. 2002; 100:2917-2925) were assigned to three experimental arms: 1) control (vehicle treated), 2) subcutaneously treated with compound 16, and 3) intravenously treated with compound 16. […]

Row | Structure (SMILES) | mortality [1] | cleavage of PARP [2] | clinical signs of toxicity (TF(v-SRC) cells) | length of survival (TF(v-SRC) cells) | malignant cells by flow cytometry (lymph node/tumor specimens) (TF(v-SRC) cells) | treated mice with no evidence of leukemia (TF(v-SRC) cells) | weight loss compared to vehicle-treated mice (TF(v-SRC) cells) | reduction in TF(v-SRC) growth (TF(v-SRC) tumors; 20 mg/kg intravenously every other day) | reduction in TF(v-SRC) growth (TF(v-SRC) tumors; 20 mg/kg subcutaneously at a remote site every other day)
1 | O=C(O)C=Cc1ccc(-c2ccc(O)c(C34CC5CC(CC(C5)C3)C4)c2)c(Cl)c1 [Compound 3-Cl-AHPC, 4-[3-(1-adamantyl)-4-hydroxyphenyl]-3-chlorocinnamic acid, reference compound] | One of the mice in the group treated with 3-Cl-AHPC died 48 hours after the final injection | – | – | – | – | – | – | – | –
2 | O=C(O)/C=C/c1cnc(-c2ccc(O)c(C34CC5CC(CC(C5)C3)C4)c2)nc1 [Compound 16, (E)-3-[2-(3-(1-Adamantyl)-4-hydroxyphenyl)-5-pyrimidinyl]-2-propenoic acid] | – | cleavage of PARP was noted | did not display any evidence of diarrhea, dehydration, scruffy coat, or decreased physical activity | marked increase in the length of survival | No malignant cells were identified | 87% | did not display any evidence of weight loss | 55% | 55%
